Data published in article PMC8218542, “Iodine-catalyzed electrophilic substitution of indoles: Synthesis of (un)symmetrical diindolylmethanes with a quaternary carbon center” (Beilstein Journal of Organic Chemistry, 2021).
Entries after “also recorded” stand apart in the source; their conditions may differ. Where two headings read alike, the source gives them in different places.

What was measured:
Human CB1 receptor [1] = molecular target: T1, Human CB1 receptor (Homo sapiens, UniProt P21554); experiment: Radioligand binding assay vs [3H]CP55,940, membranes of CHO cells expressing human CB1; settings: CHO cell membranes
Method: (§1) Radioligand b inding assays at CB1 and CB 2 receptors
(§2) Competition binding assays were performed using the CB receptor agonist radioligand [3H](−)- cis-3-[2-hydroxy-4-(1,1-dimethylheptyl)phenyl]-trans-4-(3-hydroxypropyl)-cyclohexanol as previously described [S1]. Briefly, membrane preparations of Chinese hamster ovary (CHO) cells stably expressing human CB1 or CB2 receptor were used (30 μg of protein/well for CB1 and 16 µg of protein/well for CB2-receptor preparations). All stock solutions of test compounds ([…]) were prepared in DMSO. After 2 h of incubation, a mixture containing 15 μL of the […]
(§3) mM MgCl2, 0.1% BSA, pH 7.4), 60 μL of membrane preparation (in 50 mM TRIS buffer) and 465 μL of assay buffer, were filtered through GF/C glass fiber filters (presoaked for 0.5 h in 0.3% aq. polyethyleneimine solution), using a Brandel 96-channel cell harvester (Brandel, Gaithersburg, MD). Radioactivity on the filters was then measured in a liquid scintillation counter (Topcount NXT, Packard/Perkin-Elmer) after 10 h of preincubation with 50 µl of scintillation cocktail (Multiscint 25, Perkin-Elmer). […]

Human CB2 receptor [2] = molecular target: T2, Human CB2 receptor (Homo sapiens, UniProt P34972); experiment: Radioligand binding assay vs [3H]CP55,940, membranes of CHO cells expressing human CB2; design: expressed in transfected cells; membrane preparations; settings: CHO cell membranes
Method: as §1, §2, §3

control HEK293 cells = experiment: Trupath BRET2 assay in control HEK293 cells transfected with only Gαi1-Rluc8, ß3 and γ9-GFP2; format: cell-based; settings: cells without CB receptor
Human CB1 receptor [3] = molecular target: T1, Human CB1 receptor; experiment: Trupath BRET2 functional assay in HEK293 cells transfected with human CB1; format: cell-based; design: expressed in transfected cells; host or cells: HEK293 cells, transient transfection (Lipofectamine 2000); receptor in pcDNA3.1(+); Trupath plasmids Addgene kit #1000000163; settings: for agonistic activity at human CB1: agonist mode, BRET2; for IC50: read-out: IC50, blockade of CB1 receptor activation
Method: (§4) Functional assays at CB1 and CB2 receptors
(§5) Functional assays of the selected compounds were assessed using the Trupath BRET 2 assay system as recently described [S2]. The Trupath plasmids were a gift from Bryan Roth’s Laboratory (Addgene kit #1000000163). Briefly, HEK293 cells were seeded in a 6 well-plate at adensity of 700.000 cells/well and incubated for 4h. Plasmids containing Gαi1-Rluc8, ß3 and γ9-GFP2 and either human CB 1 or CB2 in pcDNA3.1(+) at a ratio of 1:1:1:1 were mixed with Lipofectamine 2000 and transfected according to the manufacturer’s protocol. The cells were further incubated overnight, then harvested and seeded at a density of 40.000 cells/well in 96 well-plates with full growth medium, and cultured for another 24h. On the day of the […]
(§6) culture medium was carefully discarded and replaced by 60 µL of HBSS-HEPES buffer, followed by the addition of 10 µL of 50 µM Coelenterazine 400a. For testing of agonistic activity, the test compounds were added to the wells in a volume of 30 µL and incubated for 5 min. For antagonist testing, compounds were added in a volume of 15 µL, incubated for 5 min, […]
(§7) incubated for another 5 min. Test compounds were dissolved in DMSO and the final DMSO concentration in the assays was 1%. Finally, the signal was measured using a Mitras LB400 according to previously published literature[S3]. Data were obtained from 3-4independent experiments performed in duplicate.

Human CB2 receptor [4] = molecular target: T2, Human CB2 receptor; experiment: Trupath BRET2 functional assay in HEK293 cells transfected with human CB2; format: cell-based; design: expressed in transfected cells; host or cells: HEK293 cells, transient transfection (Lipofectamine 2000); receptor in pcDNA3.1(+); Trupath plasmids Addgene kit #1000000163; settings: for agonistic activity at human CB2: agonist mode, BRET2
Method: as §4, §5, §6, §7

Human CB1 receptor [5] = molecular target: T1, Human CB1 receptor; design: method as in PMID 7565624; settings: previously reported; cited from earlier work
CB1 receptors = tested on: CB1 receptors; design: method as in PMID 19286662; settings: previously shown; cited from earlier work
Human CB2 receptor [6] = molecular target: T2, Human CB2 receptor; design: expressed in transfected cells; membrane preparations; method as in PMID 7565624; settings: previously reported; cited from earlier work

T1 sequence (P21554 whole entry): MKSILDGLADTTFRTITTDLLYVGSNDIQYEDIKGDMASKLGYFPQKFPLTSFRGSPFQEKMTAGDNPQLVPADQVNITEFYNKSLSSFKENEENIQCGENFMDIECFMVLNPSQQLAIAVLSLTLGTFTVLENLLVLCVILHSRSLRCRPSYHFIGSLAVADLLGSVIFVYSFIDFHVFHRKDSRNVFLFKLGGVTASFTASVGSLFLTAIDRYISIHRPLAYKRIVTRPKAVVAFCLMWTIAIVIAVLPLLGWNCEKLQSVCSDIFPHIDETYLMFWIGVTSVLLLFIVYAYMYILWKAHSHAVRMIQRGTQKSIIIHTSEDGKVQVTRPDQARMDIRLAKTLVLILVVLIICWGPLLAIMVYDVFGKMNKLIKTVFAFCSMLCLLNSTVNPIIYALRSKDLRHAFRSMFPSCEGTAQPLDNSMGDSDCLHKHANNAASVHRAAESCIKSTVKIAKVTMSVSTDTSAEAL
T2 sequence (P34972 whole entry): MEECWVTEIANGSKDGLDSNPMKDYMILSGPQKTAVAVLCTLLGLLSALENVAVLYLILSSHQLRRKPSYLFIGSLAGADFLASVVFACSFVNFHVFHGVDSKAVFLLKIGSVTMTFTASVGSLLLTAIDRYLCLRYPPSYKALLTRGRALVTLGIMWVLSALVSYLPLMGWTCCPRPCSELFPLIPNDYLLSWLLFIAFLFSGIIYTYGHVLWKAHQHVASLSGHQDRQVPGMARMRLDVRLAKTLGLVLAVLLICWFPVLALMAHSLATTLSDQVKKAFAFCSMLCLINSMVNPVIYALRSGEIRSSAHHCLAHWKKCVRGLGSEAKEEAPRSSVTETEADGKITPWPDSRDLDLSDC

Ki (Human CB1 receptor [1]) [µM] | Ki (Human CB2 receptor [2]) [µM] | Structure (SMILES) | further results
1.82 ± 0.09 | 11.2 ± 0.5 | COc1ccc2[nH]cc(C(c3ccccc3)(c3c[nH]c4ccccc34)C(F)(F)C(F)(F)F)c2c1 (stereo not shown) [3ad] | effect in non-transfected control cells (control HEK293 cells): did not show any effect; inverse agonistic activity (effect on basal activity) at CB1 (Human CB1 receptor [3]; BRET2, HEK293): less pronounced; also recorded: inverse agonistic activity; agonistic activity at human CB1 (Human CB1 receptor [3]): no agonistic activity; IC50 (Human CB1 receptor [3]): 5.22 ± 0.68 µM; agonistic activity at human CB2 (Human CB2 receptor [4]): no agonistic activity
3.21 ± 0.25 | 4.47 ± 0.12 | COc1ccc2[nH]cc(C(c3ccccc3)(c3c[nH]c4cc(F)ccc34)C(F)(F)F)c2c1 (stereo not shown) [3e] | inverse agonistic activity (effect on basal activity) at CB1 (Human CB1 receptor [3]; BRET2, HEK293): reduced the basal activity; also recorded: inverse agonistic activity; agonistic activity at human CB1 (Human CB1 receptor [3]): no agonistic activity; IC50 (Human CB1 receptor [3]): 5.68 ± 0.54 µM; EC50 (Human CB1 receptor [3]; reduction of basal activity, BRET2, HEK293, read-out: EC50, inverse agonist at CB1 receptors): 0.786 ± 0.233 µM; agonistic activity at human CB2 (Human CB2 receptor [4]): no agonistic activity; inhibition of CB2 receptor activation (Human CB2 receptor [4]; antagonist mode, CP55,940 at its EC80, compared with CB1): weaker
4.78 ± 1.26 | 9.9 ± 1.45 | COc1ccc2[nH]cc(C(c3ccccc3)(c3c[nH]c4cc(F)c(F)cc34)C(F)(F)F)c2c1 (stereo not shown) [3h] | 

Continued, molecule first:

Structure (SMILES) | Ki (Human CB1 receptor [1]) [µM] | Ki (Human CB2 receptor [2]) [µM] | further results
COc1ccc2[nH]cc(C(c3ccccc3)(c3c[nH]c4ccccc34)C(F)(F)F)c2c1 (stereo not shown) [3a, 5-methoxy-3-(2,2,2-trifluoro-1-(1H-indol-3-yl)-1-phenylethyl)-1H-indole] | 4.23 ± 0.03 | 6.04 ± 0.11 | 
COc1ccc2[nH]cc(C(c3ccccc3)(c3c[nH]c4cccc(OC)c34)C(F)(F)F)c2c1 (stereo not shown) [3b] | 7.64 ± 0.8 | 4.75 ± 0.34 | 
COc1ccc2[nH]cc(C(c3ccccc3)(c3c[nH]c4c(Br)cccc34)C(F)(F)F)c2c1 (stereo not shown) [3g] | 4.02 ± 0.22 | 4.62 ± 0.33 | 
Fc1cc2[nH]cc(C(c3ccccc3)(c3c[nH]c4ccccc34)C(F)(F)F)c2cc1F (stereo not shown) [3n] | 2.04 ± 0.08 | 6.14 ± 0.13 | 
c1ccc2c(Cc3c[nH]c4ccccc34)c[nH]c2c1 [I, diindolylmethane] |  |  | Ki (Human CB1 receptor [5]): 4.3 µM; functional activity at CB1 receptors (CB1 receptors): weak inverse agonist; Ki (Human CB2 receptor [6]): 1.1 µM
